Experimental data taken from patent publication US11059809B2, “Substituted cyanopyrrolidines with activity as DUB inhibitors” (MISSION THERAPEUTICS LIMITED, priority 2017, dated 2021).

What follows are molecules tested against USP30 (Homo sapiens (Human), UniProt Q70CQ3) (assay: USP30 Biochemical IC50 Assay). Details: fluorescence polarisation, TAMRA labelled peptide linked to ubiquitin as substrate.
Chain of USP30 (Q70CQ3 whole entry): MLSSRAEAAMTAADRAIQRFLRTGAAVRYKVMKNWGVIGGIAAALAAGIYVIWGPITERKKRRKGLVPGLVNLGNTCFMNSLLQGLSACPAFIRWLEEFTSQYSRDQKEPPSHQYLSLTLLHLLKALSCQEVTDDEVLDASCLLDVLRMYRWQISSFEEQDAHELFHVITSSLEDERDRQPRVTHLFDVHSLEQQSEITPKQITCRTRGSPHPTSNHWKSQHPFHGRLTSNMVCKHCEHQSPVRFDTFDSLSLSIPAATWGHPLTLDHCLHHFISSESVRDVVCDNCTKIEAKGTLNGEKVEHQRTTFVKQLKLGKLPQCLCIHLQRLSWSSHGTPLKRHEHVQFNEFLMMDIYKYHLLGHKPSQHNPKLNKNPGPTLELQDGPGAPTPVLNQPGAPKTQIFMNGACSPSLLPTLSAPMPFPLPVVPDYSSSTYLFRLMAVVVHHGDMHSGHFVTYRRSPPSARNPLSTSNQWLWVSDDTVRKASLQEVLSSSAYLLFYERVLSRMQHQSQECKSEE
Experimental: Dilution plates were prepared at 21 times the final concentration (2100 μM for a final concentration of 100 μM) in 50% DMSO in a 96-well polypropylene V-bottom plate (Greiner #651201). A typical 8-point dilution series would be 100, 30, 10, 3, 1, 0.3, 0.1, 0.03 μM final. Reactions were performed in duplicate in black 384 well plates (small volume, Greiner 784076) in a final reaction volume of 21 μl. Either 1 μl of 50% DMSO or diluted compound was added to the plate. USP30 was diluted in reaction buffer (40 mM Tris, pH 7.5, 0.005% Tween 20, 0.5 mg/ml BSA, 5 mM beta-mercaptoethanol) to the equivalent of 0.05 μl/well and 10 μl of diluted USP30 was added to the compound. Enzyme and compound were incubated for 30 min at room temp. Reactions were initiated by the addition of 50 nM of TAMRA labelled peptide linked to ubiquitin via an iso-peptide bond as fluorescence polarisation substrate. Reactions were read immediately after addition of substrate and following a 2-hour incubation at room temperature. Readings were performed on a Pherastar Plus (BMG Labtech). λ Excitation 540 nm; λ Emission 590 nm.
CN(C[C@H]1CCN(C#N)C1)C(=O)c1ncn(-c2cccc(C#N)c2)n1 [Example 2, (S)-1-(3-cyanophenyl)-N-((1-cyanopyrrolidin-3-yl)methyl)-N-methyl-1H-1,2,4-triazole-3-carboxamide] showed an IC50 of 0.01 to 0.1 µM. With C[C@@H]1[C@H](CNC(=O)c2ncn(-c3cccc(C#N)c3)n2)CCN1C#N (mixture of isomers) [Example 4, N-(((2R,3R)-1-cyano-2-methylpyrrolidin-3-yl)methyl)-1-(3-cyanophenyl)-1H-1,2,4-triazole-3-carboxamide and N-(((2R,3S)-1-cyano-2-methylpyrrolidin-3-yl)methyl)-1-(3-cyanophenyl)-1H-1,2,4-triazole-3-carboxamide] the IC50 was 0.01 to 0.1 µM. Work on N#CN1CC[C@H](CNC(=O)c2cnn(-c3cccc(Cl)c3)n2)C1 [Example 7, (R)-2-(3-chlorophenyl)-N-((1-cyanopyrrolidin-3-yl)methyl)-2H-1,2,3-triazole-4-carboxamide] yielded an IC50 of under 0.01 µM. N#Cc1cccc(-n2cc(C(=O)NC[C@H]3CCN(C#N)C3)nn2)c1 [Example 5, (R)-1-(3-cyanophenyl)-N((1-cyanopyrrolidin-3-yl)methyl)-1H-1,2,3-triazole-4-carboxamide] was tested, and the IC50 was 0.1 to 1 µM.
